Measured values published in ChEMBL document CHEMBL4828727, “Antibacterial and antitumoral properties of 1,2,3-triazolo fused triterpenes and their mechanism of inhibiting the proliferation of HL-60 cells” (Eur J Med Chem, 2021).
Values after ≈ are worked out from the molar mass of the structure shown.

Columns and labels:
[1] = system: HL-60; assay: Induction of apoptosis in human HL-60 cells assessed as live cells at 8 uM after 48 hrs by Annexin V-PE/7-AAD dual staining based flow cytometry (reference value: 90.1 to 90.7%); assay type: functional
[2] = Antiproliferative activity against human DND41 cells assessed as inhibition of cell viability measured after 72 hrs by real-time IncuCyte proliferation analysis; assay type: functional, cell-based; conditions: DND41, 72 h
[3] = system: HL-60; assay: Induction of apoptosis in human HL-60 cells assessed as early apoptotic cells at 8 uM after 48hrs by Annexin V-PE/7-AAD dual staining based flow cytometry (reference value: 1.72 to 3.25%); assay type: functional
[4] = system: HL-60; assay: Induction of autophagy in human HL-60 cells assessed as fold increase in MDC fluorescence intensity at 8 uM measured after 48 hrs by flow cytometry relative to control; assay type: functional
[5] = system: HL-60; assay: Induction of mitochondrial membrane potential loss in human HL-60 cells at 6 uM after 48 hrs by JC-1 staining based flow cytometry (reference value: 3.49%); assay type: functional
[6] = system: HL-60; assay: Induction of apoptosis in human HL-60 cells assessed as early apoptotic cells at 10 uM in presence of 3-MA after 48 hrs by Annexin V-PE/7-AAD dual staining based flow cytometry (reference value: 3.14%); assay type: functional
[7] = system: HL-60; assay: Induction of apoptosis in human HL-60 cells assessed as early apoptotic cells at 8 uM in presence of 3-MA after 48 hrs by Annexin V-PE/7-AAD dual staining based flow cytometry (reference value: 3.14%); assay type: functional
[8] = system: Staphylococcus aureus; assay: Antibacterial activity against Staphylococcus aureus ATCC65385 assessed as growth inhibition after 20 hrs by broth microdilution method; assay type: functional
[9] = system: HL-60; assay: Induction of autophagy in human HL-60 cells assessed as fold increase in MDC fluorescence intensity at 10 uM measured after 48 hrs by flow cytometry relative to control; assay type: functional
[10] = system: HL-60; assay: Cell cycle arrest in human HL-60 cells assessed as increase in accumulation in G0/G1 phase at 8 uM incubated for 48 hrs by propidium iodide staining based flow cytometric analysis (reference value: 64.97%); assay type: functional
[11] = system: NCI-H460; assay: cells; assay type: functional, cell-based; conditions: Homo sapiens, NCI-H460, 72 h
Description: Antiproliferative activity against human NCI-H460 cells assessed as inhibition of cell viability measured after 72 hrs by colorimetric MTS viability assay

[12] = system: HL-60; assay: Cell cycle arrest in human HL-60 cells assessed as accumulation of cells at G2/M phase at 6 uM incubated for 48 hrs by propidium iodide staining based flow cytometric analysis (reference value: 6.61%); assay type: functional
[13] = system: HL-60; assay: Cell cycle arrest in human HL-60 cells assessed as decrease in accumulation in S phase at 6 uM incubated for 48 hrs by propidium iodide staining based flow cytometric analysis (reference value: […]); assay type: functional; parameters: scale not given: the % may be the effect or the level left
[14] = system: HL-60; assay: Cell cycle arrest in human HL-60 cells assessed as increase in accumulation in G0/G1 phase at 6 uM incubated for 48 hrs by propidium iodide staining based flow cytometric analysis (reference value: 64.97%); assay type: functional
[15] = system: HL-60; assay: Induction of apoptosis in human HL-60 cells assessed as live cells at 10 uM after 48 hrs by Annexin V-PE/7-AAD dual staining based flow cytometry (reference value: 90.1 to 90.7%); assay type: functional
[16] = system: HL-60; assay: Cell cycle arrest in human HL-60 cells assessed as decrease in accumulation in S phase at 10 uM incubated for 48 hrs by propidium iodide based flow cytometric analysis (reference value: 28.42%); assay type: functional; parameters: scale not given: the % may be the effect or the level left
[17] = system: HL-60; assay: Induction of apoptosis in human HL-60 cells assessed as late apoptotic cells at 6 uM in presence of 3-MA after 48 hrs by Annexin V-PE/7-AAD dual staining based flow cytometry (reference value: 3.12%); assay type: functional
[18] = system: Escherichia coli; assay: Antibacterial activity against Escherichia coli ATCC47076 assessed as growth inhibition after 20 hrs by broth microdilution method; assay type: functional
[19] = system: HL-60; assay: Induction of apoptosis in human HL-60 cells assessed as live cells at 8 uM in presence of 3-MA after 48 hrs by Annexin V-PE/7-AAD dual staining based flow cytometry (reference value: 91.1%); assay type: functional

`COc1ccc2[nH]cc(CCn3nnc4c3C(C)(C)[C@@H]3CC[C@]5(C)[C@H](CC=C6[C@@H]7CC(C)(C)CC[C@]7(C(=O)O)CC[C@]65C)[C@@]3(C)C4)c2c1` showed an Activity [1] of 50.1%, an IC50 [2] of 7.2 µM and an Activity [3] of 4.97%. For the same molecule, the “fold change (FC)” value [4] was 1.72, the Activity [5] was 7.86% and the Activity [6] was 14.7%. The Activity [7] was 20%, the MIC50 [8] was 32.3 µg/mL (≈ 49.5 µM) and the “fold change (FC)” value [9] was 2. For the same molecule, the Activity [10] was 73.3%, the IC50 [11] was 12.5 µM and the Activity [12] was 7.66%. For the same molecule, the Activity [13] was 24.83%, the Activity [14] was 67.5% and the Activity [15] was 20.4%. It also gave an Activity [16] of 11.39%, an Activity [17] of 13.7% and an MIC50 [18] of 413 µg/mL (≈ 632 µM). The Activity [19] was 68.9%.
